The record followed here is patent US20070190143A1, “Disintegrating tablets comprising licarb azepine” (priority 2004, published 2007).

The nature of this data set: solubility in water. It is filed as physicochemical. To be noted: 25° C. From the text:
Licarbazepine is indicated to be suitable for the treatment of psychosomatic disturbances, epilepsy, trigeminal neuralgia and cerebral spasticity. […] The mechanisms by which the compounds of the invention exert their anticonvulsant effects are not completely understood, but their activity may be partly due to effects on ion flow across neuronal membranes. However, pharmacokinetics, absorption sites and mechanisms of action of the compounds of the invention are not understood in detail. Licarbazepine is slightly soluble in water (3.2 mg/ml at 25° C.). In view of this physical property, a parenteral formulation of licarbazepine can be prepared as described, e. g., in EP-1 033 988. Despite the merits of the known parenteral dosage form, there remains a need to establish an advantageous oral dosage form of the compounds of the invention. One of the problems that may occur using an oral dosage form is the fluctuation of blood levels of the compounds of the invention on repeated administration, which may be associated with side effects.

The structures appear in SMILES notation. Values after ≈ are worked out from the molar mass of the structure shown.

For `NC(=O)N1c2ccccc2CC(O)c2ccccc21` (racemic) [Licarbazepine, 10,11-dihydro-10-hydroxy-5H-dibenz[b,f]azepine-5-carboxamide], the concentration in solution (solubility) was 3200 µg/mL (≈ 12.6 mM).
